Holding throughout (test): Stability of glycerokinase in the presence of dichlorophenol at 25° C. (Table 2)
Holding throughout (type): biochemical

For assay [1], the system named is glycerokinase (GK, E.C. 2.7.1.30) from Candida mycoderma. From the text:
(§1) It is known that Bacillus stearothermophilis contains a glycerokinase (see J. Appl. Bac., 38, 301-304/1975). However, it could not be deduced from this that this glycerokinase would display a good stability towards the mentioned group of activators which would permit its use together with these activators.

Assay [2] deals with T1, glycerokinase (GK) from Escherichia coli (commercially available) (Escherichia coli, UniProt P0A6F3).
T1 construct: purchased
From the text: as §1

Assay [3] deals with glycerokinase (GK) from Bacillus stearothermophilis (Geobacillus stearothermophilus, UniProt A0ACH1EBP7).
From the text: as §1

With dichlorophenol, the “residual activity after 30 min.” value in assay [1] (2 mM dichlorophenol) turned out to be 68%; in assay [1] (5 mM dichlorophenol) it was 18%; in assay [2] (2 mM dichlorophenol) it was 93%; in assay [2] (5 mM dichlorophenol) it was 81%; in assay [3] (2 mM dichlorophenol), 100%; in assay [3] (5 mM dichlorophenol), 100%. Moreover, the “residual activity after 60 min.” value turned out to be 56% in assay [1] (2 mM dichlorophenol); 7% in assay [1] (5 mM dichlorophenol); 87% in assay [2] (2 mM dichlorophenol); 58% in assay [2] (5 mM dichlorophenol); 100% in assay [3] (2 mM dichlorophenol); 100% in assay [3] (5 mM dichlorophenol).
